Assay results from ChEMBL document CHEMBL5046262, “Fragment-Based Discovery of MRTX1719, a Synthetic Lethal Inhibitor of the PRMT5•MTA Complex for the Treatment of MTAP-Deleted Cancers” (J Med Chem, 2022).

What was measured:
[1] = target: T1, Protein arginine N-methyltransferase 5 (Homo sapiens, UniProt O14744)
[2] = target: T1, Protein arginine N-methyltransferase 5; remark: listed apart in the source
[3] = Apparent permeability across apical to basolateral side in dog MDCKII-MDR1 cells at 2 uM incubated for 2.5 hrs by LC-MS/MS analysis; assay type: ADME, cell-based, Canis lupus familiaris, MDCK-MDR1; settings: for Papp A→B at 2.5 h, 2 µM: MDCK-MDR1
[4] = Efflux ratio of apparent permeability across basolateral to apical side over apical to basolateral side in dog MDCKII-MDR1 cells at 2 uM incubated for 2.5 hrs by LC-MS/MS analysis; assay type: ADME, cell-based, Canis lupus familiaris, MDCK-MDR1; settings: MDCK-MDR1
[5] = target: T1, Protein arginine N-methyltransferase 5; experiment: Binding affinity to MTA-bound human PRMT5 assessed as dissociation constant by SPR assay
[6] = Intrinsic clearance in human hepatocytes; assay type: ADME, cell-based, Hepatocyte; settings: read-out: CLH
HCT-116 [7] = experiment: Antiproliferative activity against MTAP knockout human HCT-116 cells assessed as reduction in cell viability incubated for 5 days followed by replacement with fresh medium containing compound and measured after 5 days by CTG assay; assay type: functional, cell-based
HCT-116 [8] = experiment: Antiproliferative activity against human HCT-116 cells expressing wild type MTAP assessed as reduction in cell viability incubated for 5 days followed by replacement with fresh medium containing compound and measured after 5 days by CTG assay; assay type: functional, cell-based
[9] = Selectivity ratio of IC50 for antiproliferative activity against human HCT-116 cells expressing wild type MTAP to IC50 for antiproliferative activity against MTAP knockout human HCT-116 cells; assay type: functional
[10] = target: T1, Protein arginine N-methyltransferase 5; experiment: Inhibition of PRMT5 methyltransferase activity in human HCT-116 cells expressing wild type MTAP assessed as inhibition of PRMT5- mediated SDMA modification level incubated for 96 hrs by Western blot analysis; assay type: cell-based
[11] = Intrinsic clearance in mouse hepatocytes; assay type: ADME, cell-based, Hepatocyte; settings: read-out: CLH
Homo sapiens = organism: Homo sapiens; experiment: Selectivity ratio of IC50 for inhibition of PRMT5 methyltransferase activity in human HCT-116 cells expressing wild type MTAP to IC50 for nhibition of PRMT5 methyltransferase activity in MTAP knockout human HCT-116 cells; assay type: cell-based
[12] = target: T1, Protein arginine N-methyltransferase 5; experiment: Inhibition of PRMT5 methyltransferase activity in MTAP knockout human HCT-116 cells assessed as inhibition of PRMT5- mediated SDMA modification level incubated for 96 hrs by Western blot analysis; assay type: cell-based
[13] = Lipophilicity, logD of the compound at pH 7.4; assay type: physicochemical; settings: buffer
[14] = Half life in CD-1 mouse at 3 mg/kg, iv measured upto 24 hrs by LC-MS/MS analysis; assay type: ADME, organism-based; settings: in vivo
Lu-99 cell line [15] = experiment: Antitumor activity against MTAP/CDKN2A deleted human Lu-99 cells xenografted in Hsd athymic nude mouse assessed as reduction in PRMT5 mediated SDMA level in tumor at 12.5 to 100 mg/kg, po qd administered via oral gavage for 21 days relative to control; assay type: functional; design: scale not given: the % may be the effect or the level left; settings: dose 12.5-100 mg/kg, time 21 day
[16] = Inhibition of PRMT5 C449S mutant/MEP50 (unknown origin) using Histone H2A as substrate; design: species or system Homo sapiens
[17] = Oral bioavailability in cynomolgus monkey at 10 mg/kg administered via gavage measured upto 24 hrs by LC-MS/MS analysis; assay type: ADME, organism-based, Macaca fascicularis; settings: in vivo
[18] = Toxicity in Hsd athymic nude mouse xenografted with MTAP/CDKN2A deleted human Lu-99 cells assessed as effect on body weight at 12.5 to 100 mg/kg, po qd administered via oral gavage for 21 days; assay type: organism-based, Lu-99 cell line; settings: in vivo, 504 h, dose 12.5-100 mg/kg, time 21 day
[19] = Volume of distribution at steady state in beagle dog at 2 mg/kg, iv measured upto 24 hrs by LC-MS/MS analysis; assay type: ADME, organism-based, Canis lupus familiaris; settings: in vivo, read-out: Vdss
Lu-99 cell line [20] = experiment: Antitumor activity against MTAP/CDKN2A deleted human Lu-99 cells xenografted in Hsd athymic nude mouse assessed as tumor growth inhibition at 50 mg/kg, po qd administered via oral gavage for 21 days by caliper method relative to control; assay type: functional; settings: Lu-99, po, 504 h, time 21 day, read-out: TGI
[21] = Oral bioavailability in CD-1 mouse at 30 mg/kg administered via gavage measured upto 24 hrs by LC-MS/MS analysis; assay type: ADME, organism-based; settings: in vivo
[22] = Total clearance in cynomolgus monkey at 2 mg/kg, iv measured upto 24 hrs by LC-MS/MS analysis; assay type: ADME, organism-based, Macaca fascicularis; settings: in vivo
[23] = Half life in cynomolgus monkey at 2 mg/kg, iv measured upto 24 hrs by LC-MS/MS analysis; assay type: ADME, organism-based, Macaca fascicularis; settings: in vivo
[24] = Oral bioavailability in beagle dog at 10 mg/kg administered via gavage measured upto 24 hrs by LC-MS/MS analysis; assay type: ADME, organism-based, Canis lupus familiaris; settings: in vivo
[25] = Cmax in CD-1 mouse at 30 mg/kg, po administered via gavage measured upto 24 hrs by LC-MS/MS analysis; assay type: ADME, organism-based; design: route oral, dose 30 mg/kg, time <=24; settings: in vivo
[26] = Total clearance in beagle dog at 2 mg/kg, iv measured upto 24 hrs by LC-MS/MS analysis; assay type: ADME, organism-based, Canis lupus familiaris; settings: in vivo
[27] = Cmax in beagle dog at 10 mg/kg, po administered via gavage measured upto 24 hrs by LC-MS/MS analysis; assay type: ADME, organism-based, Canis lupus familiaris; design: route oral, dose 10 mg/kg, time <=24; settings: in vivo
[28] = AUCinfinity in beagle dog at 10 mg/kg, po administered via gavage measured upto 24 hrs by LC-MS/MS analysis; assay type: ADME, organism-based, Canis lupus familiaris; design: route oral, dose 10 mg/kg, time <=24; settings: in vivo
[29] = Half life in beagle dog at 2 mg/kg, iv measured upto 24 hrs by LC-MS/MS analysis; assay type: ADME, organism-based, Canis lupus familiaris; settings: in vivo
[30] = Total clearance in CD-1 mouse at 3 mg/kg, iv measured upto 24 hrs by LC-MS/MS analysis; assay type: ADME, organism-based; settings: in vivo
[31] = Volume of distribution at steady state in CD-1 mouse at 3 mg/kg, iv measured upto 24 hrs by LC-MS/MS analysis; assay type: ADME, organism-based; settings: in vivo, read-out: Vdss
[32] = AUCinfinity in CD-1 mouse at 30 mg/kg, po administered via gavage measured upto 24 hrs by LC-MS/MS analysis; assay type: ADME, organism-based; design: route oral, dose 30 mg/kg, time <=24; settings: in vivo
[33] = Volume of distribution at steady state in cynomolgus monkey at 2 mg/kg, iv measured upto 24 hrs by LC-MS/MS analysis; assay type: ADME, organism-based, Macaca fascicularis; settings: in vivo, read-out: Vdss
Lu-99 cell line [34] = experiment: Antitumor activity against MTAP/CDKN2A deleted human Lu-99 cells xenografted in Hsd athymic nude mouse assessed as tumor growth inhibition at 100 mg/kg, po qd administered via oral gavage for 21 days by caliper method relative to control; assay type: functional; settings: Lu-99, po, 504 h, time 21 day, read-out: TGI

T1 sequence (O14744 whole entry): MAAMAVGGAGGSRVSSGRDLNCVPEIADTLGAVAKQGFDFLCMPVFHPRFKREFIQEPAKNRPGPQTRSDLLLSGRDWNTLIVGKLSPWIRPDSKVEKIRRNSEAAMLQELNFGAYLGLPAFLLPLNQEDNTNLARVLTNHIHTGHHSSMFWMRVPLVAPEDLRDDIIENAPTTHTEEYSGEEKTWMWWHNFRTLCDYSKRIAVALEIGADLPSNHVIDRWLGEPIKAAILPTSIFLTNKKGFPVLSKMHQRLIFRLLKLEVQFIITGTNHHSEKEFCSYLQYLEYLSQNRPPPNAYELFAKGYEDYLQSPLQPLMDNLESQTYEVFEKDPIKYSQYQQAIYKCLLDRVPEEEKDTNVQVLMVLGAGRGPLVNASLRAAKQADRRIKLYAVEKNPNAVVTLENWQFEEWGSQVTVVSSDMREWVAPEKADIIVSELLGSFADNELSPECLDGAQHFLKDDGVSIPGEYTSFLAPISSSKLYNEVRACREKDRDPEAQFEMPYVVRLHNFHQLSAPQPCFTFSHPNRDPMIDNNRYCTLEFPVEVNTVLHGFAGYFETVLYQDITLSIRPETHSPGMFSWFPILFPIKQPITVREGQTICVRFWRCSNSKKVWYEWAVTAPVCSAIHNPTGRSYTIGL

NCc1nnc(O)c2ccc(-c3ccccc3)cc12
IC50 [1]: 14.5 µM
IC50 [2]: 4300 nM
Papp A→B at 2.5 h, 2 µM [3]: 16 ×10⁻⁶ cm/s
efflux ratio at 2.5 h, 2 µM [4]: 0.8
Kd [5]: 1620 nM

Cn1ncc(-c2ccc3c(=O)[nH]nc(CN)c3c2)c1-c1cccc(OC2CC2)c1C#N
CLint scaled [6]: < 18 mL/min/kg
IC50 (HCT-116 [7]): 129 nM
IC50 (HCT-116 [8]): 6.82 µM
IC50 [2]: 1000 nM
Ratio IC50 [9]: 53
IC50 [10]: 6.55 µM
CLint scaled [11]: 237 mL/min/kg
Papp A→B at 2.5 h, 2 µM [3]: 0.3 ×10⁻⁶ cm/s
efflux ratio at 2.5 h, 2 µM [4]: 104
Ratio IC50 (Homo sapiens): 193
IC50 [12]: 34 nM

Cn1ncc(-c2ccc3c(=O)[nH]nc(CN)c3c2)c1-c1cc(Cl)cc(OC2CC2)c1C#N
CLint scaled [6]: < 18 mL/min/kg
IC50 (HCT-116 [7]): 41 nM
IC50 (HCT-116 [8]): 0.99 µM
Ratio IC50 [9]: 24
IC50 [10]: 0.834 µM
CLint scaled [11]: 336 mL/min/kg
Papp A→B at 2.5 h, 2 µM [3]: 0.2 ×10⁻⁶ cm/s
efflux ratio at 2.5 h, 2 µM [4]: 121
IC50 [12]: 8 nM

Cn1cc(-c2ccc3c(=O)[nH]nc(CN)c3c2)cn1
logD [13]: -0.5
Papp A→B at 2.5 h, 2 µM [3]: 2.3 ×10⁻⁶ cm/s

Cn1ncc(-c2ccc3c(=O)[nH]nc(CN)c3c2)c1-c1c(F)c(Cl)cc(OC2CC2)c1C#N
CLint scaled [6]: < 18 mL/min/kg
half-life [14]: 90 min
Activity (Lu-99 cell line [15]): 86%
IC50 [16]: 717 nM
bioavailability [17]: 41%
Activity [18]: Non-Toxic
Vd [19]: 3.4 L/kg
inhibition in vivo at 50 mg/kg (Lu-99 cell line [20]): 86%
bioavailability [21]: 80%
clearance [22]: 15 mL/min/kg
half-life [23]: 366 min
bioavailability [24]: 59%
Cmax [25]: 1160 ng/mL
clearance [26]: 14 mL/min/kg
Cmax [27]: 1400 ng/mL
AUC(0-inf) [28]: 7470 ng·h/mL
half-life [29]: 288 min
clearance [30]: 83 mL/min/kg
Vd [31]: 6.3 L/kg
AUC(0-inf) [32]: 4850 ng·h/mL
Papp A→B at 2.5 h, 2 µM [3]: < 0.2 ×10⁻⁶ cm/s
Papp ([3]; mdck-mdr1, 2.5 h, 2 µM, 2.5 h): 0.3 ×10⁻⁶ cm/s
Vd [33]: 2.3 L/kg
inhibition in vivo at 100 mg/kg (Lu-99 cell line [34]): 88%
